According to patent US8883793B2, “Tubulin inhibitors and methods of using the same” (Development Center for Biotechnology, priority 2010, dated 2014):

system: KB cell; assay: MTS assay, growth inhibition of KB cells; assay type: cell-based; details: Homo sapiens, at 10 μM concentration, incubated for 72 h, read-out: Inhibition rate (%) (growth inhibition rate of MTS assay)
Protocol: MTS assay was performed in determining the growth inhibition of cancer cells. MTS ((3-(4,5-dimethylthiazol-2-yl)-5-(3-carboxymethoxyphenyl)-2-(4-sulfophenyl)-2H-tetrazolium)), in the presence of phenazine methosulfate (PMS) and reductases, produces a formazan product that has an absorbance maximum at 490-500 nm. MTS assays (and closely related MTT assay) are commonly used to measure cell viabilities or survivals.
Briefly, KB/Hela, NCI-H460, A375, Colo205, HCT-116, U937, MCF-7, MDA-MB-231, A549, H1975 cells were seeded into 96-well plate at 4000, 4000, 2000, 2000, 2000 cells/well. After 24 h for attachment, test compound was added into each well and incubated for 72 h. A total of 20 μl of MTS reaction reagent containing the MTS (Promega, Madison, Wis.) and PMS in a ratio of 20:1 was added into each well to react with dehydrogenase enzyme in survival cells. After 3 h, the absorbance at 490 nm was monitored using Emax precision microplate reader (Molecular Devices, Sunnyvale, Calif.).
The growth inhibition rate of MTS assay at KB cell of these compounds (at 10 μM concentration) are list in Table 5.

SMILES	inhibition at 10 µM [%]
O=C(CCc1ccccc1)Nc1ncc(Cc2ccccc2)s1 [Compound 2, N-(5-Benzyl-thiazol-2-yl)-3-phenyl-propionamide]	95.5
O=C(/C=C/c1ccccc1)Nc1ncc(Cc2ccccc2)s1 [Compound 3, N-(5-Benzyl-thiazol-2-yl)-3-phenyl-acrylamide]	94.3
O=C(CCc1ccc(F)cc1)Nc1ncc(Cc2ccc3c(c2)OCO3)s1 [Compound 7, N-(5-Benzo[1,3]dioxol-5-ylmethyl-thiazol-2-yl)-3-(4-fluoro-phenyl)-propionamide]	91.7
O=C(CCc1cccnc1)Nc1ncc(Cc2ccc3c(c2)OCO3)s1 [Compound 8, N-(5-Benzo[1,3]dioxol-5-ylmethyl-thiazol-2-yl)-3-pyridin-3-yl-propionamide]	90.6
COc1ccc2cc(Cc3cnc(NC(=O)CCc4ccccc4)s3)ccc2c1 [Compound 14, N-[5-(6-Methoxy-naphthalen-2-ylmethyl)-thiazol-2-yl]-3-phenyl-propionamide]	89.5
COc1ccc(CCC(=O)Nc2ncc(Cc3ccc(OC)cc3)s2)cc1 [Compound 15, N-[5-(4-Methoxy-benzyl)-thiazol-2-yl]-3-(4-methoxy-phenyl)-propionamide]	93
COc1ccc(Cc2cnc(NC(=O)CCc3ccncc3)s2)cc1 [Compound 16, N-[5-(4-Methoxy-benzyl)-thiazol-2-yl]-3-pyridin-4-yl-propionamide]	62
COc1ccc(Cc2cnc(NC(=O)CCc3ccc(F)cc3)s2)cc1OC [Compound 18, N-[5-(3,4-Dimethoxy-benzyl)-thiazol-2-yl]-3-(4-fluoro-phenyl)-propionamide]	96.6
COc1ccc2cc(Cc3cnc(NC(=O)CCc4ccc(C)o4)s3)ccc2c1 [Compound 19, N-[5-(6-Methoxy-naphthalen-2-ylmethyl)-thiazol-2-yl]-3-(5-methyl-furan-2-yl)-propionamide]	94.1
COc1ccc(CCC(=O)Nc2ncc(Cc3ccc(OC)c(OC)c3)s2)cc1 [Compound 20, N-[5-(3,4-Dimethoxy-benzyl)-thiazol-2-yl]-3-(4-methoxy-phenyl)-propionamide]	93.4
Cc1ccc(CCC(=O)Nc2ncc(Cc3ccc4ccccc4c3)s2)o1 [Compound 21, 3-(5-Methyl-furan-2-yl)-N-(5-naphthalen-2-ylmethyl-thiazol-2-yl)-propionamide]	97.1
O=C(CCc1ccccc1)Nc1ncc(Cc2ccc3ccccc3c2)s1 [Compound 22, N-(5-Naphthalen-2-ylmethyl-thiazol-2-yl)-3-phenyl-propionamide]	95.6
O=C(CCc1ccc(F)cc1)Nc1ncc(Cc2ccc3ccccc3c2)s1 [Compound 23, 3-(4-Fluoro-phenyl)-N-(5-naphthalen-2-ylmethyl-thiazol-2-yl)-propionamide]	95.8
O=C(CCc1cccnc1)Nc1ncc(Cc2ccc3ccccc3c2)s1 [Compound 24, N-(5-Naphthalen-2-ylmethyl-thiazol-2-yl)-3-pyridin-3-yl-propionamide]	95.2
O=C(CCc1ccccc1)Nc1ncc(Cc2ccc(F)c(F)c2)s1 [Compound 25, N-[5-(3,4-Difluoro-benzyl)-thiazol-2-yl]-3-phenyl-propionamide]	94.2
COc1cccc(CCC(=O)Nc2ncc(Cc3ccc(F)c(F)c3)s2)c1 [Compound 26, N-[5-(3,4-Difluoro-benzyl)-thiazol-2-yl]-3-(3-methoxy-phenyl)-propionamide]	92.9
O=C(CCc1cccnc1)Nc1ncc(Cc2ccc(F)c(F)c2)s1 [Compound 27, N-[5-(3,4-Difluoro-benzyl)-thiazol-2-yl]-3-pyridin-3-yl-propionamide]	91.2
O=C(CCc1ccc(F)cc1)Nc1ncc(Cc2ccc(F)c(F)c2)s1 [Compound 28, N-[5-(3,4-Difluoro-benzyl)-thiazol-2-yl]-3-(4-fluoro-phenyl)-propionamide]	95
COc1cccc(CCC(=O)Nc2ncc(Cc3ccc(OC)c(OC)c3)s2)c1 [Compound 29, N-[5-(3,4-Dimethoxy-benzyl)-thiazol-2-yl]-3-(3-methoxy-phenyl)-propionamide]	96.6
Cc1ccc(CCC(=O)Nc2ncc(Cc3ccc(F)c(F)c3)s2)o1 [Compound 30, N-[5-(3,4-Difluoro-benzyl)-thiazol-2-yl]-3-(5-methyl-furan-2-yl)-propionamide]	92.3

SMILES	inhibition at 10 µM [%]
COc1ccc(Cc2cnc(NC(=O)CCc3ccc(C)o3)s2)cc1OC [Compound 31, N-[5-(3,4-Dimethoxy-benzyl)-thiazol-2-yl]-3-(5-methyl-furan-2-yl)-propionamide]	95.8
O=C(Nc1ncc(Cc2ccc(F)c(F)c2)s1)OCc1ccccc1 [Compound 32, [5-(3,4-Difluoro-benzyl)-thiazol-2-yl]-carbamic acid benzyl ester]	52.7
O=C(Nc1ncc(Cc2ccc3c(c2)OCO3)s1)OCc1ccccc1 [Compound 33, (5-Benzo[1,3]dioxol-5-ylmethyl-thiazol-2-yl)-carbamic acid benzyl ester]	92.4
O=C(CCc1ccccc1)Nc1ncc(Cc2c(F)c(F)c(F)c(F)c2F)s1 [Compound 34, N-(5-Pentafluorophenylmethyl-thiazol-2-yl)-3-phenyl-propionamide]	92.8
COc1cccc(CCC(=O)Nc2ncc(Cc3c(F)c(F)c(F)c(F)c3F)s2)c1 [Compound 35, 3-(3-Methoxy-phenyl)-N-(5-pentafluorophenylmethyl-thiazol-2-yl)-propionamide]	90.4
O=C(CCc1cccnc1)Nc1ncc(Cc2c(F)c(F)c(F)c(F)c2F)s1 [Compound 36, N-(5-Pentafluorophenylmethyl-thiazol-2-yl)-3-pyridin-3-yl-propionamide]	94.3
O=C(CCc1cccc(F)c1)Nc1ncc(Cc2ccc3ccccc3c2)s1 [Compound 37, 3-(3-Fluoro-phenyl)-N-(5-naphthalen-2-ylmethyl-thiazol-2-yl)-propionamide]	94.4
COc1cccc(CCC(=O)Nc2ncc(Cc3ccc4ccccc4c3)s2)c1 [Compound 38, 3-(3-Methoxy-phenyl)-N-(5-naphthalen-2-ylmethyl-thiazol-2-yl)-propionamide]	94.2
O=C(CCc1ccc(F)cc1)Nc1ncc(Cc2ccc(-c3ccccc3)cc2)s1 [Compound 39, N-(5-Biphenyl-4-ylmethyl-thiazol-2-yl)-3-(4-fluoro-phenyl)-propionamide]	94
O=C(CCc1cccnc1)Nc1ncc(Cc2ccc(-c3ccccc3)cc2)s1 [Compound 40, N-(5-Biphenyl-4-ylmethyl-thiazol-2-yl)-3-pyridin-3-yl-propionamide]	58.8
COc1cc(Cc2cnc(NC(=O)CCc3ccccc3)s2)ccc1OC(=O)OCc1ccccc1 [Compound 41, Carbonic acid benzyl ester 2-methoxy-4-[2-(3-phenyl-propionylamino)-thiazol-5-ylmethyl]-phenyl ester]	95.8
COc1cc(Cc2cnc(NC(=O)CCc3cccnc3)s2)ccc1OC(=O)OCc1ccccc1 [Compound 42, Carbonic acid benzyl ester 2-methoxy-4-[2-(3-pyridin-3-yl-propionylamino)-thiazol-5-ylmethyl]-phenyl ester]	91.2
COc1cccc(CCC(=O)Nc2ncc(Cc3ccc(OC(=O)OCc4ccccc4)c(OC)c3)s2)c1 [Compound 43, Carbonic acid benzyl ester 2-methoxy-4-{2-[3-(3-methoxy-phenyl)-propionylamino]-thiazol-5-ylmethyl}-phenyl ester]	95.6
COc1ccc(Cc2cnc(NC(=O)/C=C/c3ccc(C)o3)s2)cc1 [Compound 44, N-[5-(4-Methoxy-benzyl)-thiazol-2-yl]-3-(5-methyl-furan-2-yl)-acrylamide]	93.1
O=C(CCc1ccc(F)cc1)Nc1ncc(Cc2ccc(C(F)(F)F)cc2)s1 [Compound 45, 3-(4-Fluoro-phenyl)-N-[5-(4-trifluoromethyl-benzyl)-thiazol-2-yl]-propionamide]	94
O=C(CCc1cccnc1)Nc1ncc(Cc2ccc(C(F)(F)F)cc2)s1 [Compound 46, 3-Pyridin-3-yl-N-[5-(4-trifluoromethyl-benzyl)-thiazol-2-yl]-propionamide]	96
COc1cccc(CCC(=O)Nc2ncc(Cc3ccc(C(F)(F)F)cc3)s2)c1 [Compound 48, 3-(3-Methoxy-phenyl)-N-[5-(4-trifluoromethyl-benzyl)-thiazol-2-yl]-propionamide]	95.3
COc1cc(Cc2cnc(NC(=O)CCc3cccnc3)s2)cc(OC)c1OC [Compound 50, 3-Pyridin-3-yl-N-[5-(3,4,5-trimethoxy-benzyl)-thiazol-2-yl]-propionamide]	97.2
COc1ccc(Cc2cnc(NC(=O)CCc3ccc(-c4ccccc4)cc3)s2)cc1 [Compound 51, 3-Biphenyl-4-yl-N-[5-(4-methoxy-benzyl)-thiazol-2-yl]-propionamide]	96.1
COc1ccc(Cc2cnc(NC(=O)C(C)Cc3ccc(F)cc3)s2)cc1 (stereo not shown) [Compound 57, 3-(4-Fluoro-phenyl)-N-[5-(4-methoxy-benzyl)-thiazol-2-yl]-2-methyl-propionamide]	93.2
